Measured values from patent publication US7264956B2, “Compounds and methods for inhibiting axillary malodour” (Givaudan SA, priority 2001, dated 2007).
Entries after “also recorded” stand apart in the source; their conditions may differ. Where two headings read alike, the source gives them in different places.

How the values were obtained:
[1] = target: T1, enzyme extracted from Corynebacterium striatum A×20 (AMRE, Nα-acyl-glutamine-aminoacylase) (Corynebacterium striatum, UniProt Q8GGD4); assay: Substrate specificity of the enzyme (capillary GC of released acid or alcohol); format: biochemical; conditions: for Cleavage by enzyme: 500 ppm in Buffer A, 24 h incubation
T1 construct: an enzyme may be isolated from cellular extracts obtained from wild-type bacterial strains; endogenous in cells; host or cells: Corynebacterium striatum Ax20 (DSM 14267), mechanically disrupted; crude extract or chromatographically purified enzyme
Protocol: To understand in detail the structural requirements of substrates, the enzyme extracted from Corynebacterium striatum A×20 was incubated with a wide variety of said compounds related to the originally isolated Nα-3-methyl-3-hydroxy-hexanoyl-L-glutamine present in sweat. Each compound was used at a concentration of 500 ppm in Buffer A, and analysis of released acid or alcohol was done by capillary GC after 24 h of incubation. First, different modifications at the N-terminus were tested.

[2] = target: T2, purified enzyme obtained from E.coli Top 10/pBADgIII AMRE (Corynebacterium striatum, UniProt Q8GGD4); assay: High throughput screening for inhibitors (fluorescamine assay of released L-glutamine); format: biochemical; conditions: substrate Nα-lauroyl-L-glutamine 0.05 mM; Ki calculated from IC50
T2 construct: made in house; host or cells: E. coli TOP10 (Invitrogen), vector pBADgIIIA, arabinose-induced
Description: Compounds, which inhibit an enzyme of the present invention reduce the activity of the enzyme and may lead to a significant reduction of the release of malodour acids from odourless fresh sweat. […] The activity of the compounds as inhibitors may be measured in terms of either their IC50 values or their Ki values, both of which measures are well known to the person skilled in the art. As is well known, the IC50 value provides the concentration of an inhibitor needed to reduce enzyme velocity by half at a given substrate concentration. This value is dependent on the affinity of the substrate for the enzyme which is reflected in the value Km of the substrate. In this way, the Ki value may be determined for a given substrate and a given substrate concentration by measuring IC50 and then calculating according to the following formula
Potential inhibitory compounds were dissolved in Buffer A and aliquots of the solutions of different inhibitors (10 μl) were distributed to individual wells of a white microtiter plate. Purified enzyme obtained from the strain E.coli Top 10/pBADgIII AMRE was diluted in Buffer A (200 pg/ml final concentration) and added to the inhibitory compounds. After 10 min preincubation, the substrate (Nα-lauroyl-L-glutamine) was added to the individual wells to a final concentration of 0.05 mM. After 15 min of incubation, the amino-group of the released L-glutamine was derivatised by adding to each well of the microtiter plate 50 μl of a fluorescamine stock solution (2.5 mM in acetonitrile; fluorescamine obtained from Fluka, Buchs, Switzerland). After 5 min the fluorescence in the wells of the microtiter plates was measured with an excitation wavelength of 360 nm and an emission wavelength of 460 nm. The fluorescence of control wells with enzyme, substrate and DMSO only was then compared to the fluorescence in wells containing potential inhibitors. By varying the inhibitor concentration, the IC50 value for each compound was determined, and the Ki values were calculated.

[3] = target: T3, purified enzyme from Corynebacterium striatum A×20 (Corynebacterium striatum, UniProt Q8GGD4); format: biochemical; conditions: for enzyme activity after incubation with serin-/cystein protease inhibitor: purified enzyme
T3 construct: an enzyme may be isolated from cellular extracts obtained from wild-type bacterial strains; endogenous in cells; host or cells: Corynebacterium striatum Ax20 (DSM 14267), mechanically disrupted; crude extract or chromatographically purified enzyme
Protocol: Corynebacterium striatum A×20 was selected to isolate and purify the enzyme responsible for the cleavage of the precursor Nα-3-hydroxy-3-methyl-hexanoyl-L-glutamine. The strain was grown during 48 h in Mueller-Hinton broth amended with 0.01% Tween 80. A total volume of 2 L of culture was harvested by centrifugation. The pellet was washed in Buffer A (50 mM NaCl; 50 mM NaH2PO4/K2HPO4 buffer at pH 7) and this buffer was used throughout the whole purification procedure. The cells were disrupted mechanically by vortexing them with glass beads (425–600 μm, Sigma, St-Louis, USA) during 30 min at maximal speed. The crude cell lysate was then fractionated by precipitation with an increasing concentration of (NH4)2SO4. […] This enriched sample was dissolved in Buffer A and then sequentially passed over four chromatography columns: DEAE Sepharose CL-6B anion exchange resin (Pharmacia, Uppsala, Sweden; elution with a linear gradient from 0 to 800 mM KCI); Phenyl-Sepharose hydrophobic interaction resin (Pharmacia; elution with a linear gradient from 1000 mM to 0 mM of (NH4)2SO4; Mono Q strong anion exchange column on the FPLC system (Pharmacia; elution with a gradient from 0 to 800 mM KCl) and finally Mono P weak anion exchange column on the FPLC (elution with a gradient from 0–800 mM KCl in a 50 mM Bis-Tris buffer instead of Buffer A). […] Finally, the enzyme was subjected to LC-ESI-MS/MS analysis after tryptic digestion and to analysis of its N-terminal amino acid sequence.

[4] = target: T4, enzyme activity in living cells of A×20 (Corynebacterium striatum, UniProt Q8GGD4); assay: Low throughput screening for inhibitors, stationary phase living cells of A×20; format: cell-based; conditions: 5 mM; substrate Nα-lauroyl-L-glutamine, 2 h
T4 construct: stationary phase living cells of A×20; endogenous in cells; host or cells: Corynebacterium striatum Ax20, stationary-phase living cells
Protocol: (§1) Extracts of A×20 were prepared by mechanical disruption as described in Example 3. The extract (0.5 ml corresponding to 2 ml initial cell culture) was added to 3.5 ml of Buffer A and amended with 40 μl of substrate (Nα-lauroyl-L-glutamine, 5% stock solution in methanol). Parallel samples were additionally amended with potential inhibitory compounds to give a final concentration of 0.5 and 5 mM. The samples were incubated for 2 h and then extracted with MTBE and HCI and analysed for released lauric acid using capillary GC. By comparing the samples containing potential inhibitory compounds with control samples with enzyme and substrate only, the inhibition (%) was calculated. The same assay was also made either with purified enzyme from the wild-type strain (see example 3) or with extracts from E.coli Top 10/pBADgIII AMRE induced with arabinose (see example 6). Furthermore, the same assay was made using stationary phase living cells of A×20 instead of an isolated enzyme preparation. In this case successful uptake of the inhibitors into the cells and inhibition are measured simultaneously.

[5] = target: T5, isolated enzyme (extracts of A×20) (Corynebacterium striatum, UniProt Q8GGD4); assay: Low throughput screening for inhibitors, isolated enzyme (released lauric acid by GC); format: biochemical; conditions: substrate Nα-lauroyl-L-glutamine, 2 h
T5 construct: an enzyme may be isolated from cellular extracts obtained from wild-type bacterial strains; endogenous in cells; host or cells: Corynebacterium striatum Ax20 (DSM 14267), mechanically disrupted; crude extract or chromatographically purified enzyme
Protocol: as §1

[6] = target: T6, enzyme heterologously expressed in E. coli TOP10 (pBADgIIIAMRE) (Corynebacterium striatum, UniProt Q8GGD4); assay: Enzyme assay with extracts of E. coli expressing the enzyme (release of lauric acid); format: biochemical; conditions: 500 ppm substrate
T6 construct: made in house; host or cells: E. coli TOP10 (Invitrogen), vector pBADgIIIA, arabinose-induced
Description: The full-length sequence of the open reading frame coding for the enzyme was amplified with PCR from chromosomal DNA of A×20 using specific primers (SEQ ID NO 14 and SEQ ID NO 15). The amplified DNA fragment was then digested with the restriction enzymes NcoI and Hind III It was then ligated into the vector pBADIIIA (Invitrogen, Groningen, The Netherlands) pre-digested with the same enzymes. The resulting plasmid pBADgIIIAMRE was transformed into the host strain E. coli TOP10 (Invitrogen). This strain was grown in LB broth until it reached an optical density of about 0.5 at 600 nm. The culture was induced with arabinose (0.2% final concentration) incubated for 4 h, harvested by centrifugation and disrupted by ultrasonication. Enzyme assays with Na-lauryl-Glutamine as substrate were performed in Buffer A with an incubation time of 1 h and a substrate concentration of 500 ppm. Table 3 gives the activity of extracts obtained from wild-type cells and from extracts of the induced and non-induced modified strains expressing the enzyme.

[7] = tested on: other Corynebacteria and some Staphylococci; assay: Release of lauric acid from Nα-lauroyl-L-glutamine by axilla bacteria; format: cell-based; conditions: same experiment as Table 1, Nα-lauroyl-L-glutamine as substrate
Protocol: The axillary flora of 8 panellists was isolated with the detergent-scrub method: A 6 cm^2 area of the axilla was scrubbed with a phosphate buffer at pH 7 containing 1% Tween 80. The samples were spread-plated on tryptic soy agar amended with 5 g/L of Tween 80 and 1 g/L of lecithin. Single isolates obtained after 48 h incubation were subcultured and characterised. A total of 24 individual strains were identified based on colony and cell morphology, gram-reaction, lipophilic growth, lipase reaction and API identification kits (bioMerieux, France; coryneforms with the API coryne kit and cocci with the ID Staph 32 kit). The strains were grown overnight in a liquid medium (Mueller-Hinton amended with 0.01% Tween 80), harvested by centrifugation and resuspended to a final OD600 of 1 in a semi-synthetic medium (Per litre: 3 g KH2PO4, 1.9 g K2HPO4, 0.2 g yeast extract, 0.2 g MgSO4, 1.4 g NaCl, 1 g NH4Cl, 10 mg MnCl2, 1 mg Fe3Cl2, 1 mg CaCl2). […] The Corynebacteria which are able to conduct this biochemical reaction may be found in the group of the lipophilic and in the group of the non-lipophilic Corynebacteria. Therefore, a specific enzyme only present in some bacterial strains seems to be responsible for this cleavage. Since it releases axilla malodour the putative enzyme was named AMRE, which stands for ‘axillary malodour releasing enzyme’. […]

T2 sequence (Q8GGD4 2-400): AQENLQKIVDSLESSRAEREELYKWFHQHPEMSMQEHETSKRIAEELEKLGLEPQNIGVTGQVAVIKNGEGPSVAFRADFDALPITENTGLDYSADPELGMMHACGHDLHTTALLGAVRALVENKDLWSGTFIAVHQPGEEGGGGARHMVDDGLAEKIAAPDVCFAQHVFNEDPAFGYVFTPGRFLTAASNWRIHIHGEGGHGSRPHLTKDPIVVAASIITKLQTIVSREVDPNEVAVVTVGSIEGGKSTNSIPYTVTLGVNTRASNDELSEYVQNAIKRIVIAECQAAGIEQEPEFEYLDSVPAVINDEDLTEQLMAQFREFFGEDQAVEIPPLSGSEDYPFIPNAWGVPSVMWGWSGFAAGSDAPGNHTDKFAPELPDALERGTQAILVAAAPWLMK
T3 sequence (Q8GGD4 2-400): as above
T6 sequence (Q8GGD4 2-400): as above
T1 sequence (Q8GGD4 2-400): as above
T5 sequence (Q8GGD4 2-400): as above
T4 sequence (Q8GGD4 2-400): as above

## NC(=O)C[C@H](NC(=O)OCc1ccccc1)C(=O)O [compound 12, Carbobenzyloxy-L-asparagine]
other
  melting point: 102 to 104 °C
[1]
  Cleavage by enzyme: −

## NC(=O)CC[C@H](NC(=O)[C@@H](S)Cc1ccccc1)C(=O)O [Compound 5a]
[2]
  Ki: 54 ± 1 nM

## CCCC[C@H](S)C(=O)N[C@@H](CCC(N)=O)C(=O)O [Compound 5c]
[2]
  Ki: 410 ± 20 nM

## NCCc1ccc(S(=O)(=O)F)cc1 [Pefabloc SC, 4-(2-aminoethyl)-benzenesulfonylfluoride]
[3]
  enzyme activity after incubation with serin-/cystein protease inhibitor: retained all its activity

## NC(=O)CCC(CP(=O)(O)Cc1ccccc1)C(=O)O (stereo not shown) [Compound 8a]
[2]
  Ki: 50 ± 3 nM

## CCCCP(=O)(O)CC(CCC(N)=O)C(=O)O (stereo not shown) [Compound 8c]
[2]
  Ki: 110 ± 10 nM

## c1cnc2c(c1)ccc1cccnc12 [o-phenantrolin]
[4]
  % inhibition of enzyme activity in living cells: 90.3%
[5]; 0.5 mM
  % inhibition of the isolated enzyme: 100%
[5]; 5 mM
  % inhibition of the isolated enzyme: 100%
[3]; 1 mM
  inhibition of the enzyme: completely inhibited

## CCCCCCCCCCCC(=O)N[C@@H](CCC(N)=O)C(=O)O [compound 2, Nα-lauroyl-L-glutamine]
[6]; extract of E. coli Top 10 (wild-type), 4 h after induction
  release of lauric acid from Lauryl-Glutamine, 1 h incubation: below detection
[6]; extract of E. coli Top 10/pBADgIIIAMRE not induced
  release of lauric acid from Lauryl-Glutamine, 1 h incubation: 23 ppm
[6]; extract of E. coli Top 10 induced, 4 h after induction
  release of lauric acid from Lauryl-Glutamine, 1 h incubation: 329 ppm
[1]
  Cleavage by enzyme: +++ (+++ cleavage over 50%)

## O=C(O)CN(CCN(CC(=O)O)CC(=O)O)CC(=O)O [EDTA]
[3]
  inhibition of the enzyme: completely inhibited

## O=S(=O)(F)Cc1ccccc1 [PMSF, Phenylmethylsulfonylfluoride]
[3]
  enzyme activity after incubation with serin-/cystein protease inhibitor: retained all its activity

## [Cl-].[Cl-].[Zn+2] [ZnCl2]
[3]; addition of 1 mM
  reversal of EDTA / o-phenantrolin inhibition: could be reversed

## CCCCCCCCCCCC(=O)N[C@@H](CCC(N)=O)C(=O)O [Nα-lauroyl-L-glutamine]
[7]
  release of lauric acid from substrate by axilla bacteria: can release lauric acid
[1]
  cleavage of substrate by enzyme (in words): able to be cleaved; also recorded: can cleave

## CC(C)C[C@H](S)C(=O)N[C@@H](CCC(N)=O)C(=O)O [Compound 5b]
[2]
  Ki: 130 ± 10 nM

## CC(C)CP(=O)(O)CC(CCC(N)=O)C(=O)O (stereo not shown) [Compound 8b]
[2]
  Ki: 58 ± 4 nM
